Strand notation (5' to 3'): a small letter for the sugar, then the base; units joined by * are phosphorothioate-linked, units joined directly phosphodiester-linked; [ ] holds rarer units or linkages, { } end groups; capitals alone tell only the bases. e = 2'-O-(2-methoxyethyl) (MOE); [5mC] = 5-methylcytosine; d = 2'-deoxy (DNA)
What follows are substances tested on human SMAD7 mRNA (assay: Antisense inhibition of human SMAD7 mRNA expression in Hep3B cells by 5-10-5 MOE gapmers, single concentration, electroporation, RT-PCR (Example 1, Study 1 and 2)). Settings: Study 2, electroporation with 15,000 nM antisense oligonucleotide, 5-10-5 MOE gapmers targeting SEQ ID NO: 1 and 2.
Assay type: cell-based
Procedure, shortened: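 Hep3B cells (20,000/well) electroporated with 5-10-5 MOE gapmer at 5,000 nM or 15,000 nM for approximately 24 h. SMAD7 mRNA quantified by real-time PCR with primer probe set RTS5062 and normalized to RIBOGREEN total RNA. Values are percent inhibition relative to untreated controls.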

Substance | % inhibition of SMAD7 mRNA expression [%]
771612 (antisense eT*e[5mC]*e[5mC]*eG*eG*dG*dA*dA*dA*dA*dA*d[5mC]*d[5mC]*dT*dG*eA*eT*eG*eT*e[5mC]) [compound 771612] | 3
771614 (antisense eG*eT*eT*eT*eT*d[5mC]*dT*dA*dA*dG*dT*d[5mC]*d[5mC]*dG*dG*eG*eA*eA*eA*eA) [compound 771614] | 25
771615 (antisense eA*eG*e[5mC]*eT*eG*dG*dT*dT*dT*dT*d[5mC]*dT*dA*dA*dG*eT*e[5mC]*e[5mC]*eG*eG) [compound 771615] | 45
771620 (antisense e[5mC]*eA*e[5mC]*eA*e[5mC]*dA*dG*dG*dA*dT*dG*dG*dG*dA*dG*e[5mC]*eA*eG*eG*e[5mC]) [compound 771620] | 12
771622 (antisense eA*eA*e[5mC]*eA*e[5mC]*dA*d[5mC]*dA*dG*dG*dA*dT*dG*dG*dG*eA*eG*e[5mC]*eA*eG) [compound 771622] | 34
771623 (antisense eT*eA*eA*e[5mC]*eA*d[5mC]*dA*d[5mC]*dA*dG*dG*dA*dT*dG*dG*eG*eA*eG*e[5mC]*eA) [compound 771623] | 51
771628 (antisense e[5mC]*e[5mC]*eA*eG*eG*dG*dA*d[5mC]*dA*dT*d[5mC]*d[5mC]*d[5mC]*d[5mC]*dG*e[5mC]*eT*eT*eG*e[5mC]) [compound 771628] | 12
771630 (antisense eT*eG*e[5mC]*eT*eA*dA*dG*d[5mC]*dA*dT*dG*dT*d[5mC]*d[5mC]*d[5mC]*eT*e[5mC]*e[5mC]*e[5mC]*eA) [compound 771630] | 37
771631 (antisense eG*eG*eG*eA*e[5mC]*dT*dG*d[5mC]*dT*dA*dA*dG*d[5mC]*dA*dT*eG*eT*e[5mC]*e[5mC]*e[5mC]) [compound 771631] | 0
771638 (antisense eT*eA*eG*eG*eA*dT*dG*dG*dT*dA*d[5mC]*d[5mC]*dT*dT*dG*eG*eG*eT*eT*eA) [compound 771638] | 41
771639 (antisense e[5mC]*eA*eG*e[5mC]*e[5mC]*dT*dA*dG*dG*dA*dT*dG*dG*dT*dA*e[5mC]*e[5mC]*eT*eT*eG) [compound 771639] | 51
771644 (antisense eG*eA*eA*eG*eA*dA*dA*dT*dG*dA*dA*dA*dG*dA*dA*eG*eA*eG*eT*eT) [compound 771644] | 0
771646 (antisense eT*eA*eT*eG*eA*dG*dT*dT*dG*dT*dA*dG*dA*dA*dG*eA*eA*eA*eT*eG) [compound 771646] | 0
771647 (antisense eG*eA*eG*eT*eG*dT*dA*dT*dG*dA*dG*dT*dT*dG*dT*eA*eG*eA*eA*eG) [compound 771647] | 6
771652 (antisense eA*eT*eT*eG*eA*dG*d[5mC]*dT*dA*dA*dG*dA*dA*d[5mC]*dA*eG*eT*eG*eT*e[5mC]) [compound 771652] | 0
771654 (antisense eA*eA*eA*e[5mC]*eA*dT*dG*d[5mC]*dT*d[5mC]*dA*dT*dT*dG*dA*eG*e[5mC]*eT*eA*eA) [compound 771654] | 32
771655 (antisense eA*eG*eT*e[5mC]*eT*dA*dA*dA*d[5mC]*dA*dT*dG*d[5mC]*dT*d[5mC]*eA*eT*eT*eG*eA) [compound 771655] | 14
771660 (antisense eT*eT*e[5mC]*eT*e[5mC]*dT*dT*dG*dT*dT*d[5mC]*dA*dT*dT*dT*eA*eA*eA*e[5mC]*e[5mC]) [compound 771660] | 0
771662 (antisense eA*eT*eG*eA*eG*dA*dA*dT*dG*d[5mC]*dT*dT*d[5mC]*dT*d[5mC]*eT*eT*eG*eT*eT) [compound 771662] | 29
771668 (antisense e[5mC]*eT*e[5mC]*eT*e[5mC]*dA*dA*dA*dG*d[5mC]*dA*d[5mC]*dT*dA*d[5mC]*eA*eA*eT*eG*e[5mC]) [compound 771668] | 9

Same assay, conditions: electroporation with 15,000 nM antisense oligonucleotide (Study 2), 5-10-5 MOE gapmers targeting SEQ ID NO: 1 and 2

Substance | % Inhibition of SMAD7 mRNA [%] | % inhibition of SMAD7 mRNA expression [%]
771608 (antisense e[5mC]*eT*eG*eG*eG*dT*dG*dA*dG*d[5mC]*dA*dA*dT*dA*d[5mC]*eT*eG*eT*eG*eA) [compound 771608] | 45 | 34
771609 (antisense eA*eT*eG*eT*e[5mC]*dA*d[5mC]*d[5mC]*dA*dG*dG*dG*d[5mC]*dA*dG*eG*e[5mC]*eA*eG*eG) [compound 771609] | – | 47
771616 (antisense eT*eG*e[5mC]*eT*eG*dA*dG*d[5mC]*dT*dG*dG*dT*dT*dT*dT*e[5mC]*eT*eA*eA*eG) [compound 771616] | 33 | 0
771617 (antisense e[5mC]*eA*eG*eT*eG*d[5mC]*dT*dG*dA*dG*d[5mC]*dT*dG*dG*dT*eT*eT*eT*e[5mC]*eT) [compound 771617] | – | 10
771618 (antisense e[5mC]*eA*eG*eG*eA*dT*dG*dG*dG*dA*dG*d[5mC]*dA*dG*dG*e[5mC]*eA*eG*eT*eG) [compound 771618] | – | 30
771624 (antisense eT*eT*eA*eA*e[5mC]*dA*d[5mC]*dA*d[5mC]*dA*dG*dG*dA*dT*dG*eG*eG*eA*eG*e[5mC]) [compound 771624] | 27 | 0
771625 (antisense eG*e[5mC]*eT*eT*eA*dA*d[5mC]*dA*d[5mC]*dA*d[5mC]*dA*dG*dG*dA*eT*eG*eG*eG*eA) [compound 771625] | – | 48
771626 (antisense eG*e[5mC]*eA*eG*eA*dG*d[5mC]*dT*dT*dA*dA*d[5mC]*dA*d[5mC]*dA*e[5mC]*eA*eG*eG*eA) [compound 771626] | – | 35
771633 (antisense eG*eA*e[5mC]*e[5mC]*eA*dA*dA*dT*d[5mC]*d[5mC]*dT*dT*d[5mC]*dT*dT*eG*eG*eA*eG*eG) [compound 771633] | – | 40
771640 (antisense eG*eG*eT*eG*eT*d[5mC]*dA*dG*d[5mC]*d[5mC]*dT*dA*dG*dG*dA*eT*eG*eG*eT*eA) [compound 771640] | 35 | 0
771642 (antisense eA*eG*eA*eA*eG*dA*dG*dT*dT*dA*dG*dG*dT*dG*dT*e[5mC]*eA*eG*e[5mC]*e[5mC]) [compound 771642] | – | 36
771648 (antisense e[5mC]*eA*eT*eA*e[5mC]*dG*dA*dG*dT*dG*dT*dA*dT*dG*dA*eG*eT*eT*eG*eT) [compound 771648] | 17 | 0
771649 (antisense eA*eA*eG*eT*eA*dT*d[5mC]*dA*dT*dA*d[5mC]*dG*dA*dG*dT*eG*eT*eA*eT*eG) [compound 771649] | – | 0
771650 (antisense eG*eA*eA*eG*eT*dA*dT*d[5mC]*dA*dT*dA*d[5mC]*dG*dA*dG*eT*eG*eT*eA*eT) [compound 771650] | – | 24
771656 (antisense eG*eT*eT*eA*eA*dA*dG*dT*d[5mC]*dT*dA*dA*dA*d[5mC]*dA*eT*eG*e[5mC]*eT*e[5mC]) [compound 771656] | 35 | 0
771657 (antisense e[5mC]*eT*eT*eA*eT*dG*dT*dT*dA*dA*dA*dG*dT*d[5mC]*dT*eA*eA*eA*e[5mC]*eA) [compound 771657] | – | 6
771658 (antisense eA*eA*eT*eA*eG*d[5mC]*dT*dT*dA*dT*dG*dT*dT*dA*dA*eA*eG*eT*e[5mC]*eT) [compound 771658] | – | 33
771664 (antisense eT*eA*eA*eA*eT*dT*dT*d[5mC]*d[5mC]*dA*dA*dT*dG*dA*dG*eA*eA*eT*eG*e[5mC]) [compound 771664] | 25 | 5
771665 (antisense eA*eA*eT*eG*e[5mC]*dT*dA*dA*dA*dT*dT*dT*d[5mC]*d[5mC]*dA*eA*eT*eG*eA*eG) [compound 771665] | – | 24
771666 (antisense eA*e[5mC]*eT*eA*e[5mC]*dA*dA*dT*dG*d[5mC]*dT*dA*dA*dA*dT*eT*eT*e[5mC]*e[5mC]*eA) [compound 771666] | – | 39

Same assay, conditions: electroporation, 15,000 nM, approximately 24 hours, relative to untreated control cells, gapmers targeting SEQ ID NO: 1 and 2

Substance | % inhibition of SMAD7 mRNA expression [%]
771613 (antisense e[5mC]*eT*eA*eA*eG*dT*d[5mC]*d[5mC]*dG*dG*dG*dA*dA*dA*dA*eA*e[5mC]*e[5mC]*eT*eG) [compound 771613] | 21
771621 (antisense eA*e[5mC]*eA*e[5mC]*eA*d[5mC]*dA*dG*dG*dA*dT*dG*dG*dG*dA*eG*e[5mC]*eA*eG*eG) [compound 771621] | 36
771629 (antisense eA*eG*e[5mC]*eA*eT*dG*dT*d[5mC]*d[5mC]*d[5mC]*dT*d[5mC]*d[5mC]*d[5mC]*dA*eG*eG*eG*eA*e[5mC]) [compound 771629] | 25
771637 (antisense eT*eG*eG*eT*eA*d[5mC]*d[5mC]*dT*dT*dG*dG*dG*dT*dT*dA*eT*eG*eA*e[5mC]*eG) [compound 771637] | 23
771645 (antisense eG*eT*eT*eG*eT*dA*dG*dA*dA*dG*dA*dA*dA*dT*dG*eA*eA*eA*eG*eA) [compound 771645] | 38
771653 (antisense eT*eG*e[5mC]*eT*e[5mC]*dA*dT*dT*dG*dA*dG*d[5mC]*dT*dA*dA*eG*eA*eA*e[5mC]*eA) [compound 771653] | 33
